Key:
[1] = target: T1, recombinant MBP-tagged LINE1 protein (238-1061) (Homo sapiens, UniProt O00370); assay: Homogeneous time-resolved fluorescence (HTRF) LINE1 RT assay; type: biochemical; conditions: 25° C., 60 minutes, read-out: IC50 for inhibition of LINE1 reverse transcriptase
T1 construct: recombinant MBP-tagged LINE1 protein (238-1061); MBP; made in house
Method: The LINE1 reverse transcriptase homogeneous time-resolved fluorescence (HTRF) assay was performed with recombinant MBP-tagged LINE1 protein (238-1061) (generated and purified according to procedures in Dai L. et al. BMC Biochemistry 2011; 12:18) in a 384-well format. Test compound was serially diluted in DMSO and further diluted in the assay buffer (50 mM Tris-HCl, 50 mM KCl, 10 mM MgCl2, 10 mM DTT, pH 8.1) to achieve a final DMSO concentration of 1%. The serially diluted compound was mixed with 64 ng/well of LINE1 enzyme, 5 nM of pre-annealed template/biotin-primer pair (synthesized at Generay Biotechnology), 10 nM of Fluorescein-12-dATP fluorescent probe (Perkin Elmer), and 1 μM dGTP/dCTP/dTTP (Thermo Fisher Scientific) in the assay buffer. The template/biotin-primer sequences were as follows:
After incubating at 25° C. for 60 minutes, the detection reagent (20 mM EDTA with streptavidin-terbium cryptate, Cisbio Bioassay) in the PPI buffer (Cisbio Bioassay) was added, and the mixture was incubated at 25° C. for 30 minutes. At the end of the incubation, fluorescence was read at ex/em=337/485 nm and ex/em=337/520 nm on an Envision 2104 plate reader (Perkin Elmer). The fluorescence ratio at 520/485 nm was used for the calculation. […] The IC50 was calculated by fitting the compound dose inhibition curve with a 4-parameter non-linear regression equation.

[2] = tested on: THP1-Dual™ KO-TREX1 cells; assay: Cellular assay for altering IFN production in THP1 TREX1 KO cells; type: cell-based; conditions: in the presence of 1 μM 5-aza-2′-deoxycytidine, five days
Method: (§1) THP1-Dual™ KO-TREX1 cells were purchased from Invivogen (cat #thpd-kotrex). The THP1-Dual™ KO-TREX1 cells were cultured in RPMI 1640, 10% heat-inactivated fetal bovine serum, 25 mM HEPES, 10 μg/mL Blasticidin, and 100 μg/mL Zeocin. THP1-Dual™ KO-TREX1 cells were treated with a dose titration of test compound in the presence of 1 μM 5-aza-2′-deoxycytidine (Sigma, cat #189825). Type 1 Interferon and cell viability were assessed after five days of treatment.
(§2) Stock solution of test compound was prepared in DMSO followed by a three-fold dilution in DMSO. Additional 50× dilution was prepared in cell culture media for each dilution. 10 μL of diluted test compound was then added to a 384-well plate.
(§3) THP1-Dual™ KO-TREX1 cells were treated with 1 μM 5-aza-2′-deoxycytidine. THP1-Dual™ KO-TREX1 cells (50 μL) were added to each well of the 384-well plate containing test compound titration at 10,000 cells/well. Cells were incubated at 37° C., 5% CO2 in a humidified incubator for five days. On day five, 20 μL of cell supernatant was transferred to a 384-well, white-walled plate, followed by addition to each well of 50 μL of QUANTI-LUC solution containing stabilizer. Luminescence was detected on a plate reader according to manufacturer's instructions. […]

[3] = tested on: IFN-β production in PBMCs; assay: Decitabine-stimulated human PBMC assay; type: cell-based; conditions: PBMCs with anti-CD3/anti-CD28 and 10 μM decitabine, 5 days
Method: EasySep buffer (32 mL, Stem Cell, cat. #20144) was used to dilute 8 mL of LRSC buffy coat (from fresh Leukopak) with gentle mixing. The diluted buffy coat (20 mL) was transferred into each of two SepMate 50 tubes, and the tubes were filled with 15 mL of Lyphoprep (Stem Cell, ct. #07851) density gradient. The SepMate tubes were then centrifuged at […] for 10 minutes at room temperature with the brake on. The top layer of supernatant was collected in SepMate tubes by quickly pouring it into a new 50 mL conical tube. The PBMCs were washed with EasySep buffer x2 by centrifuging at 300G for 5 minutes. The cells were resuspended in 30 mL of EasySep and centrifuged at 100G for 5 minutes with the brake off, and the platelets were removed. The cells were then resuspended in 6 mL of 1×RBC lysis buffer (InvitroGen) and incubated at 37° C. for 5 minutes. Then, 25 mL of EasySep buffer was mixed into the tube and it was centrifuged at 300G for 5 minutes. The cells were resuspended in 10 mL of EasySep buffer and the cells were then counted with Cellometer (AO/PI). The PBMCs were resuspended in RPMI1640 (ThermoFisher)+10% FBS (HyClone)+p/s at 3×10^6/mL. The PBMCs (100 μL, 300 k PBMCs) were then seeded in a 96-well flat bottom microplate (Corning) that had been precoated with 100 μL of anti-CD3 antibody (10 μg/mL in PBS, Biolegend) or PBS at 4° C., one day before the assay was commenced. […]

[4] = tested on: THP1-Dual™ KO-TREX1 cells; assay: CellTiter-Glo cell viability in THP1 TREX1 KO cells; type: cell-based; conditions: Homo sapiens, 120 h, in the presence of 1 μM 5-aza-2′-deoxycytidine, five days, read-out: CellTiter-Glo inhibition IC50
Method: as §1, §2
as §3, with “On day five, 20 μL of cell supernatant was transferred to a 384-well, white-walled plate, followed by addition to each well of 50 μL of QUANTI-LUC solution containing stabilizer.” left out
The remaining cells were assessed for cell viability by adding 30 μl of CellTiter-Glo (Promega, G9683) solution to each well, and placed on a shaker for 10 minutes at room temperature. Luminescence was detected on a plate reader, according to manufacturer's instructions. […]

[5] = target: T2, LINE1 reverse transcriptase (Homo sapiens, UniProt O00370); assay: Transient artificial-intron Cis LINE1 reporter assay; type: cell-based; conditions: HEK 293 cells, FLuc/RLuc ratio, read-out: IC50 for inhibition of FLuc luminescence
T2 construct: expressed in transfected cells
Method: Intron-disrupted Firefly luciferase (FLuc) expression cassettes were generated as described by Xie, Y. et al. “Characterization of L1 retrotransposition with high-throughput dual-luciferase assays,” Nucleic Acid Res. (2011) Vol. 39, No. 3, e16. In addition, the plasmid contained an intact Renilla luciferase (RLuc) expression cassette on the vector backbone, in order to normalize transfection efficiency and measure potential cell toxicity.
HEK 293 cells were seeded in 96-well plates at 1,000 cells/well in 55 μL and grown for 24 hours. Cells were transfected with FuGeneHD (Promega) following the manufacturer's protocol. Each well received 0.133 ng plasmid, 0.4 μL FuGeneHD reagent, and 4.5 μL GlutaMAX-I-supplemented Opti-MEM I reduced-serum medium (Invitrogen). Cells were simultaneously treated with test compound serially diluted starting at 100 μM in a 3-fold dilution dose response.
Luminescence was measured using the Dual-Glo Luciferase Assay System (Promega) following the manufacturer's instructions. The ratio between FLuc and RLuc gene expression was used to report LINE1 activity.

[6] = target: T2, LINE1 reverse transcriptase; assay: Stable artificial-intron Cis LINE1 reporter assay (HeLa Tet-On 3G); type: cell-based; conditions: HeLa L1 reporter cells, doxycycline induced, 72 h; read-out: IC50 for inhibition of FLuc luminescence
From the text: A stable HeLa Tet-On 3G (Takara, cat no 631183) cell line expressing a bi-directional inducible LINE1 construct was generated as described in Xie, Y. et al. “Cell division promotes efficient retrotransposition in a stable L1 reporter cell line,” Mobile DNA (2013) 4:10. Single cell clones were screened for high Luciferase expression and the highest expression Firefly expressing clone was chosen for compound testing.
Test compound was serially diluted in DMSO and spotted in 96-well plates. Subsequently the HeLa L1 artificial-intron reporter cells were plated into the compound-containing wells (8,000 cells/well), and the cells were induced for reporter expression with doxycycline (Sigma cat no D9891) at a final concentration of 500 ng/mL. Luminescence was measured 72 h after plating using the Dual-Glo Luciferase Assay System (Promega cat no E2940) following the manufacturer's instructions. The Firefly Luciferase activity was used to report LINE1 activity.

OVCAR-8 cells = assay: Cancer cell viability assay with 3D cell colonies (CellTiter-Glo), OVCAR-8; type: cell-based; conditions: 3D tumorsphere growth, 7 days
Method: (§4) Ovarian cancer cell line SK-OV-3 cells were cultured in McCoy's 5a media containing 10% FBS. Ovarian cancer cell line OVCAR-8 cells were cultured in RPMI media containing 10% FBS. Additional cancer cell lines were cultured in the following media: • Ovarian cancer SW756 cells—L-15 (100% air)+10% FBS • Esophageal cancer TE-1 cells—RPMI-1640+10% FBS • Esophageal cancer KYSE-410 cells—RPMI-1640+5˜10% FBS • Esophageal cancer KYSE-70 cells—RPMI-1640+10% h.i.FBS. • Pharyngeal cancer FaDu cells—MEM+0.01 mM NEAA+10% FBS
(§5) Cell colony formation was tested using a 3D methylcellulose-based CellTiter-Glo (CTG) viability assay (Cat. No: G7573, Promega). Briefly, cells were inoculated into 96-well plates (at 1,500 cells per well) into a solution of 0.65% methylcellulose in growth media and incubated overnight at 37° C. in 5% CO2. The next day, serially diluted test compound (islatravir) or positive control (cisplatin, Cat. No. 6J015A89, Qilu Pharma) were added at the indicated concentrations, and the cells were incubated for 7 days. On day seven, 100 μL of CTG reagent was added, and the plates were incubated at room temperature for 20 min. Luminescence was read on an Envision Multi Label Reader according to manufacturer's instructions. IC50 values were determined using the following calculation: […]

TE-1 cells = assay: Cancer cell viability assay with 3D cell colonies (CellTiter-Glo), TE-1; type: cell-based; conditions: 7 days
Method: as §4, §5

KYSE-410 cells = assay: Cancer cell viability assay with 3D cell colonies (CellTiter-Glo), KYSE-410; type: cell-based; conditions: 7 days
Method: as §4, §5

SK-OV-3 cells = assay: Cancer cell viability assay with 3D cell colonies (CellTiter-Glo), SK-OV-3; type: cell-based; conditions: 3D tumorsphere growth, 7 days
Method: as §4, §5

FaDu cells = assay: Cancer cell viability assay with 3D cell colonies (CellTiter-Glo), FaDu; type: cell-based; conditions: 7 days
Method: as §4, §5

KYSE-70 cells = assay: Cancer cell viability assay with 3D cell colonies (CellTiter-Glo), KYSE-70; type: cell-based; conditions: 7 days
Method: as §4, §5

SW756 cells = assay: Cancer cell viability assay with 3D cell colonies (CellTiter-Glo), SW756; type: cell-based; conditions: 7 days
Method: as §4, §5

C#C[C@]1(COP(=O)(O)OP(=O)(O)OP(=O)(O)O)O[C@@H](n2cnc3c(N)nc(F)nc32)C[C@@H]1O showed an IC50 [1] of 12.4 nM.
For C#C[C@]1(CO)O[C@@H](n2cnc3c(N)nc(Cl)nc32)C[C@@H]1O [4′-ethynyl-2-chloro-2′-deoxyadenosine], the “changes in IFN levels (% induction)” value [2] was “induction of IFN”, the “production of IFN-β” value [3] was “activated production of IFN-β” and the IC50 [4] was > 20000 nM. The IC50 [5] was 8 nM and the IC50 [6] was 3 nM.
N.N.[Cl][Pt][Cl] [Cisplatin, cisplatin] was tested, and the IC50 (OVCAR-8 cells) was 3.29 µM, the IC50 (TE-1 cells) was ≤ 10 µM and the IC50 (KYSE-410 cells) was > 30 µM. The IC50 (SK-OV-3 cells) was 2.24 µM, the IC50 (FaDu cells) was ≤ 10 µM and the IC50 (KYSE-70 cells) was ≤ 10 µM. The IC50 (SW756 cells) was ≤ 10 µM.

Source: patent US20250186475A1, “METHODS OF TREATING MEDICAL CONDITIONS USING ISLATRAVIR OR A RELATED COMPOUND” (ROME Therapeutics, Inc., priority 2022, published 2025)
